Reference: patent publication US20130172345A1, “1-ACYL-4-(PHENOXY, BENZYLOXY, OR PHENYLAMINO)-1,2,3,4-TETRAHYDROQUINOLINE DERIVATIVES” (KOWA COMPANY, LTD., priority 2007, published 2013)
Counter-ions that a name gives are not always drawn.

The molecules below were run on K562 cells, human proerythroblast cells (assay: Hemoglobin production in K562 cells (fluorescence of the porphyrin ring)). Conditions: 144 h, test compound 6 μM, 3+3 days, non-stimulated state = 100%, read-out: production amount of hemoglobin, % of control (6 μM).
Type: cell-based
Experimental: K562 cells (obtained from ATCC), which are human proerythroblast cells, were seeded at a density of 1×10^5 cells/1 mL on a 24-well plate by using complete medium (RPMI-1640 medium comprising 10% bovine fetal serum). After adding the test compound having 1000× concentration (1 μL), the cells were incubated for three days in a CO2 incubator (37° C., 5% CO2). After exchanging the medium, the cells were further incubated for three days. Then, the cells were collected and counted. After adjusting them to have 3×10^5 cells, the amount of hemoglobin produced in the cells was determined by measuring fluorescence of the porphyrin ring. Specifically, the cells which had been collected by centrifugation were suspended in 2 M oxalic acid solution (500 μL) and boiled for 30 minutes under heating. After cooling the cells, the fluorescence intensity was measured by Fluorescence micro plate reader (Spectra MAX GeminiEM, manufactured by Molecular Devices Corporation) ([…]). When hemoglobin amount in non-stimulated state, i.e., without addition of any compound, was 100%, the production amount of hemoglobin induced by each compound was calculated (% of control).

| SMILES | activity at 6 µM [%] |
| --- | --- |
| CC(=O)N1c2cc(F)ccc2[C@H](Oc2ccccc2)C[C@@H]1C (relative stereo) [Compound 32, cis-1-acetyl-7-fluoro-2-methyl-4-phenoxy-1,2,3,4-tetrahydroquinoline] | 145 |
| CC(=O)N1c2c(F)cccc2[C@H](Oc2ccccc2)C[C@@H]1C (relative stereo) [Compound 33, cis-1-acetyl-8-fluoro-2-methyl-4-phenoxy-1,2,3,4-tetrahydroquinoline] | 115 |
| CC(=O)N1c2ccc(F)cc2[C@H](Oc2ccccc2)C[C@@H]1C (relative stereo) [Compound 35, cis-1-acetyl-6-fluoro-2-methyl-4-phenoxy-1,2,3,4-tetrahydroquinoline] | 287 |
| CC(=O)N1c2cc(F)ccc2[C@H](Nc2cccc(F)c2)C[C@@H]1C (relative stereo) [Compound 58, cis-1-acetyl-7-fluoro-4-[(3-fluorophenyl)amino]-2-methyl-1,2,3,4-tetrahydroquinoline] | 107 |
| CC(=O)N1c2ccccc2[C@H](Oc2ccc(OCc3ccccc3)cc2)C[C@@H]1C (relative stereo) [Compound 64, cis-1-acetyl-4-(4-benzyloxyphenoxy)-2-methyl-1,2,3,4-tetrahydroquinoline] | 113 |
| CC(=O)N1c2ccc(C(N)=O)cc2[C@H](Nc2ccc(NS(C)(=O)=O)cc2)C[C@@H]1C (relative stereo) [Compound 102, cis-1-acetyl-4-[(4-methanesulfonylaminophenyl)amino]-2-methyl-1,2,3,4-tetrahydroquinoline-6-carboxamide] | 91 |
| CC(=O)N1c2ccc(C(N)=O)cc2[C@H](Nc2ccc(CC(N)=O)cc2)C[C@@H]1C (relative stereo) [Compound 106, cis-1-acetyl-4-[(4-carbamoylmethylphenyl)amino]-2-methyl-1,2,3,4-tetrahydroquinoline-6-carboxamide] | 227 |
| CC(=O)N1c2ccccc2[C@H](Nc2ccccc2C(=O)O)C[C@@H]1C (relative stereo) [Compound 109, cis-1-acetyl-4-[(2-carboxyphenyl)amino]-2-methyl-1,2,3,4-tetrahydroquinoline] | 229 |
| CC(=O)N1c2ccccc2[C@H](Nc2ccc(Cc3ccccc3)cc2)C[C@@H]1C (relative stereo) [Compound 112, cis-1-acetyl-4-[(4-benzylphenyl)amino]-2-methyl-1,2,3,4-tetrahydroquinoline] | 139 |
| COc1ccc2c(c1)C(Nc1ccc(F)cc1)CC(C)N2C(C)=O (centres unmarked) [Compound 37, 1-acetyl-4-[(4-fluorophenyl)amino]-2-methyl-6-methoxy-1,2,3,4-tetrahydroquinoline] | 494 |
| COc1ccc2c(c1)N(C(C)=O)C(C)CC2Nc1ccccc1 (centres unmarked) [Compound 48, 1-acetyl-2-methyl-7-methoxy-4-phenylamino-1,2,3,4-tetrahydroquinoline] | 139 |
| CCC1CC(Nc2ccccc2)c2ccccc2N1C(C)=O (centres unmarked) [Compound 59, 1-acetyl-2-ethyl-4-phenylamino-1,2,3,4-tetrahydroquinoline] | 108 |
| CC(=O)N1CC(C)(C)C(Nc2ccccc2)c2ccccc21 (stereo not drawn) [Compound 60, cis-1-acetyl-3,3-dimethyl-4-phenylamino-1,2,3,4-tetrahydroquinoline] | 113 |
| COc1cccc2c1N(C(C)=O)C(C)CC2Nc1ccccc1 (centres unmarked) [Compound 61, 1-acetyl-4-phenylamino-8-methoxy-2-methyl-1,2,3,4-tetrahydroquinoline] | 132 |
| CC(=O)N1c2c(Br)cccc2C(Nc2ccccc2)CC1C (centres unmarked) [Compound 63, 1-acetyl-8-bromo-4-phenylamino-2-methyl-1,2,3,4-tetrahydroquinoline] | 98 |
| CC1CC(Nc2ccc(F)cc2)c2cc(F)ccc2N1C(=O)C1CCCC1 (centres unmarked) [Compound 66, 1-cyclopentanecarbonyl-6-fluoro-2-methyl-4-[(4-fluorophenyl)amino]-1,2,3,4-tetrahydroquinoline] | 151 |
| CC(=O)N1c2ccccc2C(Oc2ccc([N+](=O)[O-])cc2)CC1C (centres unmarked) [Compound 67, 1-acetyl-2-methyl-4-(4-nitrophenoxy)-1,2,3,4-tetrahydroquinoline] | 119 |
| CC(=O)N1c2ccccc2C(Oc2ccc(N)cc2)CC1C (centres unmarked) [Compound 68, 1-acetyl-4-(4-aminophenoxy)-2-methyl-1,2,3,4-tetrahydroquinoline] | 154 |

| SMILES | activity at 6 µM [%] |
| --- | --- |
| CC(=O)N1c2ccc(NCCO)cc2C(Nc2ccc(Cl)cc2)CC1C (centres unmarked) [Compound 82, 1-acetyl-4-[(4-chlorophenyl)amino]-6-[(2-hydroxy)ethylamino]-2-methyl-1,2,3,4-tetrahydroquinoline] | 325 |
| CC(=O)N1c2ccc(N3CC(C)OC(C)C3)cc2C(Nc2ccc(Cl)cc2)CC1C (stereo not drawn) [Compound 83, 1-acetyl-4-[(4-chlorophenyl)amino]-6-[(cis-3,5-dimethyl)morpholino]-2-methyl-1,2,3,4-tetrahydroquinoline] | 282 |
| CC(=O)N1c2ccc(N3CCN(C(=O)C(C)C)CC3)cc2C(Nc2ccc(Cl)cc2)CC1C (centres unmarked) [Compound 84, 1-acetyl-4-[(4-chlorophenyl)amino]-6-[(4-isopropylcarbonyl)piperazino]-2-methyl-1,2,3,4-tetrahydroquinoline] | 286 |
| CC(=O)N1c2ccc(N3CCN(C(=O)c4ccccc4)CC3)cc2C(Nc2ccc(Cl)cc2)CC1C (centres unmarked) [Compound 86, 1-acetyl-6-[(4-benzoyl)piperazino]-2-methyl-4-[(4-chlorophenyl)amino]-1,2,3,4-tetrahydroquinoline] | 237 |
| CCN(CC)C(=O)N1CCN(c2ccc3c(c2)C(Nc2ccc(Cl)cc2)CC(C)N3C(C)=O)CC1 (centres unmarked) [Compound 87, 1-acetyl-4-[(4-chlorophenyl)amino]-6-[4-(N,N-diethylaminocarbonyl)piperazino]-2-methyl-1,2,3,4-tetrahydroquinoline] | 262 |
| CC(=O)N1c2ccc(N3CCN(C(=O)NC(C)C)CC3)cc2C(Nc2ccc(Cl)cc2)CC1C (centres unmarked) [Compound 88, 1-acetyl-4-[(4-chlorophenyl)amino]-6-[4-(isopropylaminocarbonyl)piperazino]-2-methyl-1,2,3,4-tetrahydroquinoline] | 112 |
| CC(=O)N1c2ccc(N3CCOCC3)cc2C(Nc2ccc(CC(=O)O)cc2)CC1C (centres unmarked) [Compound 89, 1-acetyl-4-[(4-carboxymethylphenyl)amino]-6-morpholino-2-methyl-1,2,3,4-tetrahydroquinoline] | 154 |
| CC(=O)N1c2ccc(N3CCOCC3)cc2C(Nc2ccc(CC(N)=O)cc2)CC1C (centres unmarked) [Compound 90, 1-acetyl-4-[(4-carbamoylmethylphenyl)amino]-2-methyl-6-morpholino-1,2,3,4-tetrahydroquinoline] | 241 |
| CC(=O)N1CCN(c2ccc3c(c2)C(Nc2ccc(CC(=O)O)cc2)CC(C)N3C(C)=O)CC1 (centres unmarked) [Compound 91, 1-acetyl-6-(4-acetylpiperazinyl)-4-[(4-carboxymethylphenyl)amino]-2-methyl-1,2,3,4-tetrahydroquinoline] | 130 |
| CC(=O)N1c2ccc(C(=O)N3CCOCC3)cc2C(Nc2ccc(Cl)cc2)CC1C (centres unmarked) [Compound 93, 1-acetyl-4-[(4-chlorophenyl)amino]-6-[(1-morpholino)carbonyl]-2-methyl-1,2,3,4-tetrahydroquinoline.hydrochloride] | 245 |
| CC(=O)N1CCN(c2ccc3c(c2)C(Nc2ccc(N4CCOCC4)cc2)CC(C)N3C(C)=O)CC1 (stereo not drawn) [Compound 94, cis-1-acetyl-6-[(4-acetyl)piperazino]-2-methyl-4-[(4-morpholinophenyl)amino]-1,2,3,4-tetrahydroquinoline.3 hydrochloride] | 199 |
| CC(=O)Nc1ccc2c(c1)C(Nc1ccc(Cl)cc1)CC(C)N2C(C)=O (centres unmarked) [Compound 96, 1-acetyl-6-acetylamino-4-[(4-chlorophenyl)amino]-2-methyl-1,2,3,4-tetrahydroquinoline] | 530 |
| CC(=O)N1c2ccc(NS(C)(=O)=O)cc2C(Nc2ccc(N3CCOCC3)cc2)CC1C (centres unmarked) [Compound 98, 1-acetyl-6-methanesulfonylamino-2-methyl-4-[(4-morpholinophenyl)amino]-1,2,3,4-tetrahydroquinoline] | 56 |
| CCOC(=O)Cc1ccc(NC2CC(C)N(C(C)=O)c3ccc(NS(C)(=O)=O)cc32)cc1 (centres unmarked) [Compound 99, 1-acetyl-6-methanesulfonylamino-2-methyl-4-[(4-ethoxycarbonylmethylphenyl)amino]-1,2,3,4-tetrahydroquinoline] | 69 |
| CC(=O)N1c2ccc(C(=O)O)cc2C(Nc2ccc(F)cc2)CC1C (centres unmarked) [Compound 100, 1-acetyl-4-[(4-fluorophenyl)amino]-2-methyl-1,2,3,4-tetrahydroquinoline-6-carboxylic acid] | 105 |
| CCOC(=O)c1ccc2c(c1)C(Nc1ccc(NS(C)(=O)=O)cc1)CC(C)N2C(C)=O (centres unmarked) [Compound 101, ethyl 1-acetyl-4-[(4-methanesulfonylaminophenyl)amino]-2-methyl-1,2,3,4-tetrahydroquinoline-6-carboxylate] | 508 |
| COC(=O)c1cc(NC2CC(C)N(C(C)=O)c3ccccc32)ccc1O (centres unmarked) [Compound 108, 1-acetyl-4-[(4-hydroxy-3-methoxycarbonylphenyl)amino]-2-methyl-1,2,3,4-tetrahydroquinoline.hydrochloride] | 399 |
